Assay results taken from patent publication US8637484B2, “Modulation of growth hormone receptor expression and insulin-like growth factor expression” (Antisense Therapeutic Limited, priority 2003, dated 2014).
In the oligonucleotide strings, read from the 5' end, every base follows the letter of its sugar. An asterisk marks phosphorothioate; unmarked linkages are phosphodiester. Other units and linkages are bracketed, terminal groups are in braces. A string of capitals states the bases alone. e = 2'-O-(2-methoxyethyl) (MOE); [5mC] = 5-methylcytosine; d = 2'-deoxy (DNA)

Each substance was assayed on human growth hormone receptor mRNA (assay: Inhibition of human growth hormone receptor mRNA levels in MCF7 cells, quantitative real-time PCR). Details: averages from three experiments.
Type: cell-based
Design: concentration or dose not given beside the values
Method: The human breast carcinoma cell line MCF-7 was obtained from the American Type Culture Collection (Manassas, Va.). MCF-7 cells were routinely cultured in DMEM low glucose (Gibco/Life Technologies, Gaithersburg, Md.) supplemented with 10% fetal calf serum (Gibco/Life Technologies, Gaithersburg, Md.). Cells were routinely passaged by trypsinization and dilution when they reached 90% confluence. Cells were seeded into 96-well plates (Falcon-Primaria #3872) at a density of 7000 cells/well for use in RT-PCR analysis.
When cells reached 65-75% confluency, they were treated with oligonucleotide. For cells grown in 96-well plates, wells were washed once with 100 μL OPTI-MEM™-1 reduced-serum medium (Invitrogen Corporation, Carlsbad, Calif.) and then treated with 130 μL of OPTI-MEM™-1 containing 3.75 μg/mL LIPOFECTIN™ (Invitrogen Corporation, Carlsbad, Calif.) and the desired concentration of oligonucleotide. Cells are treated and data are obtained in triplicate. After 4-7 hours of treatment at 37° C., the medium was replaced with fresh medium. Cells were harvested 16-24 hours after oligonucleotide treatment.
Total RNA was isolated using an RNEASY 96™ kit and buffers purchased from Qiagen Inc. (Valencia, Calif.) following the manufacturer's recommended procedures. Briefly, for cells grown on 96-well plates, growth medium was removed from the cells and each well was washed with 200 μL cold PBS. 150 μL Buffer RLT was added to each well and the plate vigorously agitated for 20 seconds. 150 μL of 70% ethanol was then added to each well and the contents mixed by pipetting three times up and down. The samples were then transferred to the RNEASY 96™ well plate attached to a QIAVAC™ manifold fitted with a waste collection tray and attached to a vacuum source. Vacuum was applied for 1 minute. 500 μL of Buffer RW1 was added to each well of the RNEASY 96™ plate and incubated for 15 minutes and the vacuum was again applied for 1 minute. An additional 500 μL of Buffer RW1 was added to each well of the RNEASY 96™ plate and the vacuum was applied for 2 minutes. 1 mL of Buffer RPE was then added to each well of the RNEASY 96™ plate and the vacuum applied for a period of 90 seconds. The Buffer RPE wash was then repeated and the vacuum was applied for an additional 3 minutes. The plate was then removed from the QIAVAC™ manifold and blotted dry on paper towels. The plate was then re-attached to the QIAVAC™ manifold fitted with a collection tube rack containing 1.2 mL collection tubes. RNA was then eluted by pipetting 140 μL of RNAse free water into each well, incubating 1 minute, and then applying the vacuum for 3 minutes.
Quantitation of growth hormone receptor mRNA levels was accomplished by real-time quantitative PCR using the ABI PRISM™ 7600, 7700, or 7900 Sequence Detection System (PE-Applied Biosystems, Foster City, Calif.) according to manufacturer's instructions. This is a closed-tube, non-gel-based, fluorescence detection system which allows high-throughput quantitation of polymerase chain reaction (PCR) products in real-time. As opposed to standard PCR in which amplification products are quantitated after the PCR is completed, products in real-time quantitative PCR are quantitated as they accumulate. This is accomplished by including in the PCR reaction an oligonucleotide probe that anneals specifically between the forward and reverse PCR primers, and contains two fluorescent dyes. A reporter dye (e.g., FAM or JOE, obtained from either PE-Applied Biosystems, Foster City, Calif., Operon Technologies Inc., Alameda, Calif. or Integrated DNA Technologies Inc., Coralville, Iowa) is attached to the 5′ end of the probe and a quencher dye (e.g., TAMRA, obtained from either PE-Applied Biosystems, Foster City, Calif., Operon Technologies Inc., Alameda, Calif. or Integrated DNA Technologies Inc., Coralville, Iowa) is attached to the 3′ end of the probe. When the probe and dyes are intact, reporter dye emission is quenched by the proximity of the 3′ quencher dye. […]
For “272323 (antisense eT*eG*eT*eG*eT*d[5mC]*dT*dG*dA*dT*dT*d[5mC]*d[5mC]*dT*d[5mC]*eA*eG*eT*e[5mC]*eT) [compound 272323]”, the “% INHIB” value was 67%. In the case of “272324 (antisense eT*eA*eT*eG*eT*d[5mC]*dA*dT*dT*dG*dG*d[5mC]*dA*dT*dT*eG*eA*eA*eA*eT) [compound 272324]”, the “% INHIB” value is reported as 53%. With “272325 (antisense eA*eA*eG*eG*e[5mC]*dA*dT*dA*dA*dG*dA*dG*dA*dT*d[5mC]*eT*eG*e[5mC]*eT*eT) [compound 272325]” the “% INHIB” value was 66%. “272326 (antisense eA*e[5mC]*eT*e[5mC]*eA*dG*d[5mC]*dT*d[5mC]*d[5mC]*dT*dT*d[5mC]*dA*dG*eT*eA*eG*eG*eA) [compound 272326]” was tested, and the “% INHIB” value was 77%. “272327 (antisense eG*eG*eA*e[5mC]*eA*dT*d[5mC]*d[5mC]*d[5mC]*dT*dG*d[5mC]*d[5mC]*dT*dT*eA*eT*eT*e[5mC]*eT) [compound 272327]” was tested, and the “% INHIB” value was 60%. For “272328 (antisense eG*eG*e[5mC]*eA*eT*dT*dG*dT*d[5mC]*d[5mC]*dA*dT*dA*dA*dG*eG*eA*eA*eG*eT) [compound 272328]”, the “% INHIB” value was 85%. In the case of “272329 (antisense eA*e[5mC]*eT*eT*eT*dT*dT*dG*dG*d[5mC]*dA*dT*d[5mC]*dT*dG*e[5mC]*e[5mC]*eT*e[5mC]*eA) [compound 272329]”, the “% INHIB” value is reported as 63%. With “272330 (antisense eG*eA*eT*eG*e[5mC]*dA*d[5mC]*dT*dT*dT*dT*dT*dG*dG*d[5mC]*eA*eT*e[5mC]*eT*eG) [compound 272330]” the “% INHIB” value was 47%. In the case of “272331 (antisense e[5mC]*eA*eG*eT*e[5mC]*dG*d[5mC]*dA*dT*dT*dG*dA*dG*dT*dA*eT*eG*eA*eG*eG) [compound 272331]”, the “% INHIB” value is reported as 67%. With “272332 (antisense e[5mC]*eT*e[5mC]*eT*eT*dT*dG*dT*d[5mC]*dA*dG*dG*d[5mC]*dA*dA*eG*eG*eG*e[5mC]*eA) [compound 272332]” the “% INHIB” value was 75%. In the case of “272333 (antisense eG*eT*eG*e[5mC]*eT*d[5mC]*dA*d[5mC]*dA*dT*dA*dG*d[5mC]*d[5mC]*dA*e[5mC]*eA*eT*eG*eA) [compound 272333]”, the “% INHIB” value is reported as 72%. With “272334 (antisense eA*eA*eG*eA*eA*dA*dG*dG*d[5mC]*dT*dA*dA*dG*dG*d[5mC]*eA*eT*eG*eA*eT) [compound 272334]” the “% INHIB” value was 61%. “272335 (antisense eA*eA*eA*eT*eA*d[5mC]*dG*dT*dA*dG*d[5mC]*dT*d[5mC]*dT*dT*eG*eG*eG*eA*eA) [compound 272335]” was tested, and the “% INHIB” value was 47%. In the case of “272336 (antisense e[5mC]*eA*eA*eT*e[5mC]*dA*d[5mC]*dT*dG*d[5mC]*dT*dA*d[5mC]*dT*dA*eA*eA*e[5mC]*eA*eG) [compound 272336]”, the “% INHIB” value is reported as 69%. With “272337 (antisense eA*eA*eA*e[5mC]*eA*dT*dA*dG*d[5mC]*d[5mC]*dA*dT*dT*d[5mC]*dA*eA*eT*eG*e[5mC]*eT) [compound 272337]” the “% INHIB” value was 39%. “272338 (antisense eG*eT*eG*e[5mC]*eT*dA*dT*dG*dG*dT*dT*dT*dG*d[5mC]*dA*eT*eT*e[5mC]*eA*eA) [compound 272338]” was tested, and the “% INHIB” value was 78%. “272339 (antisense eG*eT*eT*eT*eT*dA*d[5mC]*dA*dT*dA*dT*d[5mC]*d[5mC]*dA*dA*eA*e[5mC]*eT*eA*eT) [compound 272339]” was tested, and the “% INHIB” value was 72%. “272340 (antisense e[5mC]*eA*eT*e[5mC]*eA*dA*d[5mC]*d[5mC]*dA*dA*dG*dA*dT*dT*dT*eG*eG*eT*eG*eA) [compound 272340]” was tested, and the “% INHIB” value was 69%. In the case of “272341 (antisense eG*eA*eG*eG*e[5mC]*dT*dA*dT*dA*dG*dA*dT*d[5mC]*dT*dT*eA*eT*e[5mC]*eT*e[5mC]) [compound 272341]”, the “% INHIB” value is reported as 65%. With “272342 (antisense eT*eA*eG*eT*eG*dA*dG*dA*dA*dA*dG*dA*dA*dA*dG*eT*eT*eT*e[5mC]*eT) [compound 272342]” the “% INHIB” value was 45%. In the case of “272343 (antisense eA*eA*eT*eG*e[5mC]*dT*d[5mC]*dT*d[5mC]*dA*dA*dG*dA*dA*dT*eG*eA*eT*eG*eT) [compound 272343]”, the “% INHIB” value is reported as 48%. With “272344 (antisense eA*e[5mC]*eA*e[5mC]*eT*d[5mC]*dA*dA*dT*dT*d[5mC]*dT*dA*dG*d[5mC]*eT*eT*eT*eT*e[5mC]) [compound 272344]” the “% INHIB” value was 60%. With “272345 (antisense e[5mC]*eA*eT*e[5mC]*eT*dA*dT*dT*dA*d[5mC]*dA*dA*dA*dT*dA*eA*e[5mC]*eA*eT*eG) [compound 272345]” the “% INHIB” value was 24%. In the case of “272346 (antisense e[5mC]*eT*e[5mC]*eT*eT*dG*dG*dA*dG*dA*dA*dA*dA*d[5mC]*d[5mC]*eA*eT*eA*eG*e[5mC]) [compound 272346]”, the “% INHIB” value is reported as 67%. With “272347 (antisense eT*e[5mC]*eT*eA*e[5mC]*dA*d[5mC]*dT*dG*dA*dT*dG*dA*dT*dA*e[5mC]*eT*eT*eT*eA) [compound 272347]” the “% INHIB” value was 62%. “272348 (antisense e[5mC]*eA*e[5mC]*eA*eG*d[5mC]*dT*dT*dT*dG*dA*dA*dT*dT*dG*eA*eA*eT*eT*eA) [compound 272348]” was tested, and the “% INHIB” value was 57%. “272349 (antisense eA*eG*eT*e[5mC]*eT*dT*d[5mC]*d[5mC]*dA*dA*dA*d[5mC]*dA*d[5mC]*dA*e[5mC]*eA*eG*e[5mC]*eT) [compound 272349]” was tested, and the “% INHIB” value was 68%. With “272350 (antisense eA*eG*eG*e[5mC]*eT*dG*dT*dT*dG*dT*dG*dA*dA*dA*dT*eA*eG*eT*eA*eA) [compound 272350]” the “% INHIB” value was 67%. For “272351 (antisense eA*eT*eA*eG*eA*dA*dA*dT*dG*dT*dT*dG*dT*d[5mC]*dA*eG*eG*e[5mC]*eT*eG) [compound 272351]”, the “% INHIB” value was 57%. With “272352 (antisense e[5mC]*e[5mC]*eA*eA*eA*dA*dT*dG*dA*d[5mC]*dA*dT*dT*d[5mC]*dT*eG*eA*eG*eA*e[5mC]) [compound 272352]” the “% INHIB” value was 77%. “272353 (antisense eA*eT*eA*eA*eT*dG*dG*d[5mC]*dT*dT*dA*dT*dG*dT*dG*eG*e[5mC]*e[5mC]*eA*e[5mC]) [compound 272353]” was tested, and the “% INHIB” value was 72%. With “272354 (antisense eA*eG*eT*eT*eA*dT*dG*dT*dG*dA*d[5mC]*d[5mC]*d[5mC]*dT*dG*eA*eT*eT*eG*eA) [compound 272354]” the “% INHIB” value was 65%. With “272355 (antisense eT*eT*eG*eA*eG*dT*dG*dT*dT*d[5mC]*d[5mC]*dT*dA*dA*dA*eA*eT*eG*eA*eA) [compound 272355]” the “% INHIB” value was 24%. With “272356 (antisense eA*eT*eG*eG*eA*dG*dG*d[5mC]*dT*dG*dG*dA*dG*dG*dT*eT*e[5mC]*eA*eA*eA) [compound 272356]” the “% INHIB” value was 63%. “272357 (antisense eT*eA*eG*eG*eG*dT*d[5mC]*d[5mC]*dA*dT*d[5mC]*dT*dT*dT*d[5mC]*eA*eA*eG*eA*e[5mC]) [compound 272357]” was tested, and the “% INHIB” value was 62%. “272358 (antisense eT*e[5mC]*eT*e[5mC]*e[5mC]*dA*dG*dA*dT*dA*dG*dA*dA*dT*d[5mC]*eT*eA*eA*eA*e[5mC]) [compound 272358]” was tested, and the “% INHIB” value was 53%. With “272359 (antisense eT*e[5mC]*e[5mC]*eA*eA*dA*dT*dA*dT*dT*d[5mC]*dT*dG*dG*dT*eA*e[5mC]*eT*eT*eT) [compound 272359]” the “% INHIB” value was 72%. In the case of “272360 (antisense eT*eA*eT*eT*eA*dG*dT*dT*dA*d[5mC]*d[5mC]*dT*dT*dG*dA*eG*eG*eA*eG*eA) [compound 272360]”, the “% INHIB” value is reported as 0%. In the case of “272361 (antisense eA*eT*eT*eT*eT*d[5mC]*d[5mC]*dT*dT*d[5mC]*d[5mC]*dT*dA*dG*dA*eA*eA*eA*eT*eA) [compound 272361]”, the “% INHIB” value is reported as 10%.
